ChEMBL document CHEMBL1131776, “Potent, elective human beta3 adrenergic receptor agonists containing a substituted indoline-5-sulfonamide pharmacophore” (Bioorg Med Chem Lett, 1999)

Legend:
[1] = molecular target: T1, Beta-3 adrenergic receptor (Homo sapiens, UniProt P13945); assay: In vitro agonistic activity against cloned human beta-3 adrenergic receptor […] increase in cAMP in CHO cells; assay type: functional, cell-based
Target sequence in this assay (P13945 whole entry): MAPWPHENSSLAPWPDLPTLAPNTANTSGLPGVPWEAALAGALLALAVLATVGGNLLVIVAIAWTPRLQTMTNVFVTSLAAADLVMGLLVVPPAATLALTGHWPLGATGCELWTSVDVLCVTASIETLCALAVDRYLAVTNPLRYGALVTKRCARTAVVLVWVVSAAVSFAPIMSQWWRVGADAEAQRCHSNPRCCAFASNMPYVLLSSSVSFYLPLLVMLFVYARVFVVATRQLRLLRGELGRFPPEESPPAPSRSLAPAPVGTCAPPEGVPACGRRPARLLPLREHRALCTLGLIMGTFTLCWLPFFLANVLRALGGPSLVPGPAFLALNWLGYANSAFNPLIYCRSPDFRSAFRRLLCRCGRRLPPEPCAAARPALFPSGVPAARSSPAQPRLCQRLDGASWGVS

[2] = molecular target: Beta-2 adrenergic receptor (Homo sapiens, UniProt P07550); assay: biochemical
Sequence of Beta-2 adrenergic receptor (P07550 whole entry): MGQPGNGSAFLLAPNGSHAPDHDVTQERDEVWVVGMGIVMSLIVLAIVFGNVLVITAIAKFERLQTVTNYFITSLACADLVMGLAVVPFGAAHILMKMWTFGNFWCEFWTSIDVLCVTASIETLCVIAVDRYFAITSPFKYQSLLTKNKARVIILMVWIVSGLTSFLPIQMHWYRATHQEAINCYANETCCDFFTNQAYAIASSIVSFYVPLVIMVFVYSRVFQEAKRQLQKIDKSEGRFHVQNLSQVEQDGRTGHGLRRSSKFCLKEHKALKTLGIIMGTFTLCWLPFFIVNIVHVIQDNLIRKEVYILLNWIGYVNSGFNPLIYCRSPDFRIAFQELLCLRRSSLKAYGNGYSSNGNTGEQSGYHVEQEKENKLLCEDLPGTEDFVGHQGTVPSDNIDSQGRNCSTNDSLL
Description: In vitro binding affinity towards cloned human beta-2 adrenergic receptor using [125I]iodocyanopindolol as radioligand to stimulate increase in cAMP in CHO cells

[3] = molecular target: Beta-1 adrenergic receptor (Homo sapiens, UniProt P08588); assay: biochemical
Sequence of Beta-1 adrenergic receptor (P08588 whole entry): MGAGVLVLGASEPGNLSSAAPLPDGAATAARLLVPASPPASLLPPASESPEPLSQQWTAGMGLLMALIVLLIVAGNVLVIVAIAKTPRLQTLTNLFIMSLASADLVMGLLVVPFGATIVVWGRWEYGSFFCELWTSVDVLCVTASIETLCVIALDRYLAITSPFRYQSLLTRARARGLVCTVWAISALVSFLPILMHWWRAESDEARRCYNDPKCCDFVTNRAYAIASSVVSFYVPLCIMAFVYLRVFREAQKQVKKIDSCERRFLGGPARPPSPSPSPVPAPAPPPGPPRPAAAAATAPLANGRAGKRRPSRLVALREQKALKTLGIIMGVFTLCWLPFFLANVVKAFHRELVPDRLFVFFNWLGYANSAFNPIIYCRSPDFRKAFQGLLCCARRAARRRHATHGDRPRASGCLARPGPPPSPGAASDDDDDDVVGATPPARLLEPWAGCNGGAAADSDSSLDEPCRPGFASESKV
Description: In vitro binding affinity towards cloned human beta-1 adrenergic receptor using [125I]iodocyanopindolol as radioligand to stimulate increase in cAMP in CHO cells

[4] = molecular target: T1, Beta-3 adrenergic receptor; assay: Adenylyl cyclase activation as percent maximal stimulation with isoproterenol at 100 nM; assay type: functional
Target sequence in this assay (P13945 whole entry, looked up): as the sequence (P13945 whole entry) above

| Structure (SMILES) | EC50 [1] [nM] | IC50 [2] [nM] | IC50 [3] [nM] | Activation [4] [%] |
| --- | --- | --- | --- | --- |
| CCCCCCN(C)C(=O)N1CCc2cc(S(=O)(=O)Nc3ccccc3)ccc21 | 47 | 6500 | 10000 |  |
| CCCCCCc1nc(N2CCc3cc(S(=O)(=O)Nc4ccccc4)ccc32)no1 | 13 | 52 | 600 |  |
| CCCCCCNC(=O)N(C)c1ccc(S(=O)(=O)Nc2ccc(CCNC[C@H](O)c3cccnc3)cc2)cc1 |  | 10000 | 10000 | 20 |
| CCCCCCc1cccc(N2CCc3cc(S(=O)(=O)Nc4ccccc4)ccc32)c1 | 1.8 | 460 | 700 |  |
| CN(CCc1ccccc1)C(=O)N1CCc2cc(S(=O)(=O)Nc3ccccc3)ccc21 | 55 | 2500 | 10000 |  |
| CCCCCCCCc1csc(N(C)c2ccc(S(=O)(=O)Nc3ccccc3)cc2)n1 | 5.5 | 440 | 1500 |  |
| CCCCCCCCc1cnc(N2CCc3cc(S(=O)(=O)Nc4ccccc4)ccc32)o1 | 3.7 | 180 | 4200 |  |
| CCCCCCc1csc(N2CCc3cc(S(=O)(=O)Nc4ccccc4)ccc32)n1 | 0.9 | 510 | 1400 |  |
| CN(C)C(=O)N1CCc2cc(S(=O)(=O)Nc3ccccc3)ccc21 |  | 7000 | 9000 | 8 |
| CCCCCCCCC(=O)N1CCc2cc(S(=O)(=O)Nc3ccccc3)ccc21 | 7 | 1000 | 1800 |  |
| CCCCCCCCc1ccnc(N2CCc3cc(S(=O)(=O)Nc4ccccc4)ccc32)n1 | 2.4 | 530 | 1000 |  |
| O=S(=O)(Nc1ccccc1)c1ccc2c(c1)CCN2c1cccc(CCCC2CCCC2)n1 | 1.7 | 450 | 3000 |  |
| CCCCCCc1cccc(N2CCc3cc(S(=O)(=O)Nc4ccccc4)ccc32)n1 | 1.2 | 140 | 900 |  |
| CCCCCCc1ccc(N2CCc3cc(S(=O)(=O)Nc4ccccc4)ccc32)nc1 | 1.6 | 240 | 1800 |  |
| CCCCCCc1ccnc(N2CCc3cc(S(=O)(=O)Nc4ccccc4)ccc32)n1 | 5.1 | 620 | 1400 |  |
| CCCCCCCCN(C)C(=O)N1CCc2cc(S(=O)(=O)Nc3ccccc3)ccc21 | 18 | 1000 | 970 |  |

| Structure (SMILES) | EC50 [1] [nM] | IC50 [2] [nM] | IC50 [3] [nM] | Activation [4] [%] |
| --- | --- | --- | --- | --- |
| O=S(=O)(Nc1ccccc1)c1ccc2c(c1)CCN2c1cccc(CCCC2CCCC2)c1 | 5 | 7500 | 4000 |  |
| O=S(=O)(Nc1ccc(CCNC[C@H](O)COc2ccc(O)cc2)cc1)c1ccc2c(c1)CCN2 | 0.65 |  |  |  |
| CNC(=O)N1CCc2cc(S(=O)(=O)Nc3ccccc3)ccc21 | 55 | 7300 | 100000 |  |
| CCCCCCC(=O)N1CCc2cc(S(=O)(=O)Nc3ccccc3)ccc21 | 88 | 2000 | 10000 |  |
| CCCCCCCCc1nc(N2CCc3cc(S(=O)(=O)Nc4ccccc4)ccc32)no1 | 31 | 100 | 580 |  |
| Cc1csc(N2CCc3cc(S(=O)(=O)Nc4ccccc4)ccc32)n1 | 8.1 | 750 | 4000 |  |
| CCCCCCCCc1csc(N2CCc3cc(S(=O)(=O)Nc4ccccc4)ccc32)n1 | 0.93 | 1300 | 2600 |  |
| CCCCCCNC(=O)N1CCc2cc(S(=O)(=O)Nc3ccccc3)ccc21 | 6.9 | 36000 | 40000 |  |
| O=S(=O)(Nc1ccccc1)c1ccc2c(c1)CCN2c1noc(CCCC2CCCC2)n1 |  | 42 | 330 | 20 |
| CN(C(=O)N1CCc2cc(S(=O)(=O)Nc3ccccc3)ccc21)C(C)(C)Cc1ccccc1 |  | 8000 | 3000 | 17 |
| CCCCCCCCc1cccc(N2CCc3cc(S(=O)(=O)Nc4ccccc4)ccc32)c1 | 1.3 | 1500 | 2500 |  |
| CCCCCCCCc1csc(Nc2ccc(S(=O)(=O)Nc3ccccc3)cc2)n1 | 0.8 | 340 | 650 |  |
| CCCCCCCCNC(=O)N1CCc2cc(S(=O)(=O)Nc3ccccc3)ccc21 | 0.73 | 630 | 1000 |  |
| O=S(=O)(Nc1ccccc1)c1ccc2c(c1)CCN2c1nc(CCCC2CCCC2)cs1 | 3.2 | 900 | 4000 |  |
| CCCCCCCCc1cccc(N2CCc3cc(S(=O)(=O)Nc4ccccc4)ccc32)n1 | 1 | 63 | 220 |  |
